Biological target: T1, rhFMO5 (Homo sapiens, UniProt P49326)
T1 construct: purchased Corning Inc
T1 sequence (P49326 1-533): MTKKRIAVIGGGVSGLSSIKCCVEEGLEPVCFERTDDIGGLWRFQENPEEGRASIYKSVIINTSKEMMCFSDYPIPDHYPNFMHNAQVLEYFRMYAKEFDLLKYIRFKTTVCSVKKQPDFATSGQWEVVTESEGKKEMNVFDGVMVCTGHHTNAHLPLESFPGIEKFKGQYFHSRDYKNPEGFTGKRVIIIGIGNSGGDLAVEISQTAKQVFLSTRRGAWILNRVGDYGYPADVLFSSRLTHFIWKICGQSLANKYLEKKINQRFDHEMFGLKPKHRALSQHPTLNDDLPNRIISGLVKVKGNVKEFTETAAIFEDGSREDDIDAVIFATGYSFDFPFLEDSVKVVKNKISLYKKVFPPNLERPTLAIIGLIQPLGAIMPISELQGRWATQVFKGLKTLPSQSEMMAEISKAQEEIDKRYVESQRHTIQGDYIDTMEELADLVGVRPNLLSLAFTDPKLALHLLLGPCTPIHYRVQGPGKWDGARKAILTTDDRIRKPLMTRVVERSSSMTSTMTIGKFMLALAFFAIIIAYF
Assay: Incubation of MPZ with recombinant FMO: FMO5
Type: in vitro ADME
Details: 1 µM MPZ, pH 8.4
Protocol: MPZ at 1.0 µM was incubated in triplicate with individual recombinant FMO (Supersomes™ for FMO 1, FMO3, and FMO5). Protein concentrations for all rFMO isoforms were 0.05 mg/ml. A positive control (benzydamine, 100 µM) was incubated for 20 min. The reaction mixture containing MPZ or FMO substrate, KPi buffer (pH 8.4), and FMO Supersomes™ was pre‐incubated at 37°C for 3–5 min. All other procedures were the same as described previously. The negative control reactions were incubated absence of NADPH.

How did the “metabolism by rhFMO5” value turn out when CS(=O)(=O)c1ccc2c(c1)N(CCCN1CCC(C(N)=O)CC1)c1ccccc1S2 [MPZ, metopimazine] was run?
The value was “did not metabolize MPZ”.
